Assay results: US12180473B2, “Chimeric RNA-driven genomic rearrangement in mammalian cells” (priority 2018, dated 2024)

Legend:
[1] = system: TMPRSS2-ERG fusion
Protocol: LNCaP cells were cultured in this special medium for 24 hrs prior to plasmid transfection.
Transfection was performed using Turbofect transfection reagent (Thermo Scientific, #R0531) according to manufacturer's protocol. Briefly, 1 μg of a particular plasmid was first diluted in 100 μl of the serum-free DMEM followed by immediate mixing by pipetting. 4 μl of the transfection reagent was then added to the diluted DNA followed by mixing and incubation for 20 min. The DNA/transfection reagent mixture was then added drop wise to a well containing LNCaP cells in 1 ml medium.
For treating cultured cells, concentrated DHT stock was diluted as 10× working solutions (for example, for 0.9 μM final concentration, 10× is prepared as 9.0 μM) with the appropriate complete culture medium and used immediately. […] Six hrs post transfection, 111 μl of fresh 10× DHT working solutions was added to each well of 12-wells plate containing 1 ml medium and transfected cells.
Briefly, cells were suspended in 200 μl of PBS buffer and were then lysed with 400 μl of lysis buffer. The sample was then passed through the filter assembly resulting in the binding of the nucleic acids to the filter. The filter containing nucleic acids was then incubated with DNase I dissolved in DNase incubation buffer to degrade genomic and plasmid DNAs. The column was then rinsed with wash buffer and total RNA then eluted in a new tube for further analysis.
After the addition of dNTPs, the mixture was denatured at 65° C. for 5 minutes. This was followed by the addition of a master-mix containing 1× superscript buffer, 10 mM DTT, 5 mM Magnesium chloride, RNaseOUT and Superscript III reverse transcriptase. Reactions were carried out at 50° C. for 50 minutes and then terminated by incubation at 85° C. for 5 minutes. cDNA was then treated with RNase-H for 20 minutes at 37° C. to degrade RNA in DNA/RNA hybrid. 1 μl of cDNA was used as template for each subsequent PCR reaction.
The Denaturation, Annealing and Extension steps were performed 32 cycles for induced fusion RNA and 27 cycles for input RNA.

[2] = system: ERG mRNA; experiment: RT-PCR of endogenous ERG mRNA in LNCaP cells
[3] = system: AZI1 RNA; details: LNCaP cells
[4] = system: TMPRSS2 mRNA; details: LNCaP cells
[5] = system: TMPRSS2-ERG fusion; remark: listed apart in the source

C[C@]12CCC(=O)C[C@@H]1CC[C@@H]1[C@@H]2CC[C@]2(C)[C@@H](O)CC[C@@H]12 [DHT, 5α-Androstan-17β-ol-3-one]
DHT concentration at which fusion induction is detectable [1]: ~0.6 µM | DHT concentration at which fusion induction reaches its maximum [1]: 1.5 µM | endogenous ERG mRNA (three-rounds of nested RT-PCR) ([2]; presence or absence of DHT or antisense-5): not detected | endogenous ERG mRNA (RT-PCR) ([2]; wide range of DHT, presence or absence of antisense-5): not detected | endogenous AZI1 RNA expression [3]: upregulated | TMPRSS2 mRNA expression [4]: upregulated | TMPRSS2-ERG fusion transcript in PNT1A cells with DHT alone [5]: no detectable fusion transcripts
